Experimental data as given in ChEMBL document CHEMBL1201862, “PubChem BioAssay data set” (2004).
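Assay format: 96-well plates, 48-hour exposure. GI50 marks 50% less growth.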 Activity calls are given as the source filed them. Rule as the data show it: active = GI50 up to about 1.1 µM and inactive = higher.

Columns and labels:
Assay in all cases: inhibition of tumour cell growth, NCI panel, 48 h
SNB-75 = test system: SNB-75
PC-3 = test system: PC-3
U-251 = test system: U-251
SK-MEL-2 = test system: SK-MEL-2
OVCAR-8 = test system: OVCAR-8
A549 = test system: A549
OVCAR-5 = test system: OVCAR-5
EKVX = test system: EKVX
BT-549 = test system: BT-549
SNB-19 = test system: SNB-19
SK-MEL-5 = test system: SK-MEL-5
SF-268 = test system: SF-268
MDA-MB-435 = test system: MDA-MB-435
HL-60 = test system: HL-60
SF-539 = test system: SF-539
SF-295 = test system: SF-295
SN12C = test system: SN12C
UACC-62 = test system: UACC-62

Structure (SMILES) | GI50 (SNB-75) | GI50 (PC-3) | GI50 (U-251) | GI50 (SK-MEL-2) | GI50 (OVCAR-8) | GI50 (A549) | GI50 (OVCAR-5) | GI50 (EKVX) | GI50 (BT-549) | GI50 (SNB-19) | GI50 (SK-MEL-5) | GI50 (SF-268) | GI50 (MDA-MB-435) | GI50 (HL-60) | GI50 (SF-539) | GI50 (SF-295) | GI50 (SN12C) | GI50 (UACC-62)
O=C1/C(=C/c2cccnc2)C(n2cccc2)c2c(Br)sc(Br)c21 (stereo unspecified) | 2 µM (inactive) | 2.14 µM (inactive) | 1.7 µM (inactive) | 2.26 µM (inactive) | 2.1 µM (inactive) | 15.6 µM (inactive) | 15 µM (inactive) | 2 µM (inactive) | 9.57 µM (inactive) | 4.7 µM (inactive) | 7.18 µM (inactive) | 2.13 µM (inactive) | 1.73 µM (inactive) | 1.83 µM (inactive) | 4.26 µM (inactive) | 15.2 µM (inactive) | 3.94 µM (inactive) | 2 µM (inactive)
CCOc1cc(-c2nc3ccccn3c2/N=C/c2cc([N+](=O)[O-])cc([N+](=O)[O-])c2O)ccc1O | 88.1 µM (inactive) | > 100 µM (inactive) | > 100 µM (inactive) | > 100 µM (inactive) | > 100 µM (inactive) | > 100 µM (inactive) | > 100 µM (inactive) | > 100 µM (inactive) | > 100 µM (inactive) | > 100 µM (inactive) | > 100 µM (inactive) | > 100 µM (inactive) | > 100 µM (inactive) | > 100 µM (inactive) | > 100 µM (inactive) | > 100 µM (inactive) | > 100 µM (inactive) | > 100 µM (inactive)
C#CCN(Cc1ccc2nc(OC)c(OC)nc2c1)c1cc(OC)c(OC)c(OC)c1 | 33.7 µM (inactive) | 26.1 µM (inactive) | 23.9 µM (inactive) | 23.1 µM (inactive) | 20.7 µM (inactive) | 18.4 µM (inactive) | 40.2 µM (inactive) | 14.8 µM (inactive) | 15.4 µM (inactive) | 26.6 µM (inactive) | 7.82 µM (inactive) | 25.1 µM (inactive) | 6.59 µM (inactive) | 12.7 µM (inactive) | 18.5 µM (inactive) | 16.3 µM (inactive) | 18.2 µM (inactive) | 18.9 µM (inactive)
N=c1oc2ccc(Cl)cc2cc1C(=O)NCc1ccccc1 | 22.4 µM (inactive) | 98.9 µM (inactive) | > 86.3 µM (inactive) | 51.1 µM (inactive) | > 100 µM (inactive) | > 100 µM (inactive) | > 100 µM (inactive) | > 100 µM (inactive) | 23.7 µM (inactive) | > 100 µM (inactive) | > 100 µM (inactive) | > 100 µM (inactive) | 78.3 µM (inactive) | 11 µM (inactive) | > 100 µM (inactive) | > 100 µM (inactive) | > 100 µM (inactive) | 31.6 µM (inactive)
CN(C)CCOc1ccc2c(c1)C/C(=C/c1ncc([N+](=O)[O-])n1C)C2=O | 2.28 µM (inactive) | 3.4 µM (inactive) | 3.51 µM (inactive) | 1.67 µM (inactive) | 1.43 µM (inactive) | 1.17 µM (inactive) | 3.51 µM (inactive) | 3.61 µM (inactive) | 1.04 µM (active) | 3.39 µM (inactive) | 1.64 µM (inactive) | 1.89 µM (inactive) | 2.99 µM (inactive) | 3.25 µM (inactive) | 3.97 µM (inactive) | 3.1 µM (inactive) | 2.58 µM (inactive) | 1.95 µM (inactive)
COc1c2c(c3c(c1OC)c(=O)c1ccccc1n3C)OCO2 | > 100 µM (inactive) | > 100 µM (inactive) | > 100 µM (inactive) | > 100 µM (inactive) | > 100 µM (inactive) | > 100 µM (inactive) | > 100 µM (inactive) | 45.2 µM (inactive) | > 100 µM (inactive) | > 100 µM (inactive) | > 100 µM (inactive) | > 100 µM (inactive) | > 100 µM (inactive) | > 100 µM (inactive) | > 100 µM (inactive) | > 100 µM (inactive) | > 100 µM (inactive) | > 100 µM (inactive)
Oc1c(Cl)c(Cl)c(Cl)c(Cl)c1Cl [PENTACHLOROPHENOL] | 22.9 µM (inactive) | 18.9 µM (inactive) | 16.1 µM (inactive) | 16 µM (inactive) | 20.8 µM (inactive) | 23.1 µM (inactive) | 18.4 µM (inactive) | 23.4 µM (inactive) | 25.6 µM (inactive) | 30.3 µM (inactive) | 18.3 µM (inactive) | 31.1 µM (inactive) | 20.7 µM (inactive) | 17.5 µM (inactive) | 21.5 µM (inactive) | 17.2 µM (inactive) | 19.1 µM (inactive) | 16.4 µM (inactive)
